Results taken from publication PMC12037410, “Pharmacological targeting of BMAL1 modulates circadian and immune pathways” (Nature Chemical Biology, 2025).

Target: BMAL1 (Homo sapiens, UniProt O00327)
Parameters: PASB domain (residues 338–449); Protein thermal shift (PTS) fragment screen on recombinant human BMAL1(PASB), shift of melting temperature
Settings: dTmB; binder

Sequence of BMAL1 (O00327 338-449): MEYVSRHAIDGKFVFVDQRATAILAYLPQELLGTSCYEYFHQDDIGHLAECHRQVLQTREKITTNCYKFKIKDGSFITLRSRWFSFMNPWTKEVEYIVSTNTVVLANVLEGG

Compound | Bmal1(PASB) dTmB [°C]
CNC(=O)c1cnc(C)cn1 [Prestw-Frag-1350, Compound 286] | 0.06
CNCCc1c[nH]c2ccccc12 [Prestw-Frag-1356, Compound 318] | -0.40
O=C1COc2ccccc21 [Prestw-Frag-1361, Compound 165] | -0.13
COc1ccc2c(c1)OCC2=O [Prestw-Frag-1362, Compound 212] | -0.12
OC1(c2ccc(Cl)cc2)CCNCC1 [Prestw-Frag-1365, Compound 373] | -1.00
CCCC(=O)c1ccc(F)cc1 [Prestw-Frag-1368, Compound 311] | -0.19
COc1ccc2cc[nH]c2c1 [Prestw-Frag-1372, Compound 392] | 0.28
Oc1ccc2cc[nH]c2c1 [Prestw-Frag-1374, Compound 33] | 0.97
O=C(OC1CCCCC1)c1ccccc1O [Prestw-Frag-1382, Compound 265] | 0.09
NCC(O)COc1cccc2ccccc12 (stereo not shown) [Prestw-Frag-1389, Compound 450] | 1.58
NS(=O)(=O)c1ccccc1C(F)(F)F [Prestw-Frag-1394, Compound 374] | -0.07
c1cc2c(cc1CN1CCNCC1)OCO2 [Prestw-Frag-1397, Compound 232] | -0.60
c1cnc(N2CCNCC2)nc1 [Prestw-Frag-1398, Compound 399] | -0.21
COC(=O)C(CO)c1ccccc1 (stereo not shown) [Prestw-Frag-1406, Compound 266] | -0.21
Cc1cn[nH]c1C [Prestw-Frag-1408, Compound 109] | -1.01
NNC(=O)c1ccncc1 [Prestw-Frag-1419, Compound 226] | -0.26
NNC(=O)c1ccccc1 [Prestw-Frag-1420, Compound 187] | -0.31
c1cnc2[nH]ncc2c1 [Prestw-Frag-1428, Compound 174] | -0.31
NC(=O)c1ccccc1O [Prestw-Frag-1439, Compound 86] | 0.06
c1ccc(-c2ccccc2-c2nn[nH]n2)cc1 [Prestw-Frag-1441, Compound 357] | -0.44
c1ccc(CC2NCCc3ccccc32)cc1 (stereo not shown) [Prestw-Frag-1444, Compound 267] | -1.30
COc1ccc(CCN(C)C)cc1OC [Prestw-Frag-1445, Compound 247] | -0.12

Compound | Bmal1(PASB) dTmB [°C]
CNCCc1ccc(OC)c(OC)c1 [Prestw-Frag-1446, Compound 257] | -0.19
CN(C)C(=O)C(c1ccccc1)c1ccccc1 [Prestw-Frag-1453, Compound 166] | -0.94
CCN(CC)Cc1cc(N)ccc1O [Prestw-Frag-1462, Compound 5] | -4.46
Nc1nc2ccc(C(=O)c3ccccc3)cc2[nH]1 [Prestw-Frag-1471, Compound 466] | -1.29
c1ccc(CNc2ccccn2)cc1 [Prestw-Frag-1475, Compound 204] | -1.06
CN(C)CCNCc1ccccc1 [Prestw-Frag-1476, Compound 397] | -0.27
CC(=O)NCCc1c[nH]c2ccccc12 [Prestw-Frag-1478, Compound 417] | -0.27
COc1ccc2[nH]cc(CCN)c2c1 [Prestw-Frag-1480, Compound 3] | 3.24
Nc1c(Cl)ccc2nsnc12 [Prestw-Frag-1492, Compound 2] | -1.34
Cc1cnc(C(=O)O)cn1 [Prestw-Frag-1494, Compound 98] | 0.14
O=C(O)c1cnccn1 [Prestw-Frag-1495, Compound 269] | 0.04
O=C(O)CC[C@H](NC(=O)c1ccccc1)C(=O)O [Prestw-Frag-1499, Compound 195] | 0.09
COc1cc(C)cc(C)c1C [Prestw-Frag-1506, Compound 359] | -0.12
Cc1nccn1CCO [Prestw-Frag-1517, Compound 258] | -0.20
CNCC(c1ccc(OC)cc1)C1(O)CCCCC1 (stereo not shown) [Prestw-Frag-1523, Compound 157] | -0.81
CN(C)C(=O)Oc1ccccc1 [Prestw-Frag-1540, Compound 384] | -0.26
Nc1ccc([N+](=O)[O-])cc1Cl [Prestw-Frag-1543, Compound 463] | 0.66
O=C(Nc1ccccc1Cl)c1ccccc1O [Prestw-Frag-1545, Compound 383] | 1.33
COC(=O)C1=C(C)NC(C)=C(C(=O)OC)C1 [Prestw-Frag-1547, Compound 26] | -1.89
COc1ccc(N2CCN(c3ccc(N)cc3)CC2)cc1 [Prestw-Frag-1557, Compound 35] | 0.19
O=c1[nH]nc(Cc2ccc(Cl)cc2)c2ccccc12 [Prestw-Frag-1559, Compound 61] | -0.44
O=c1[nH]ncc2ccccc12 [Prestw-Frag-1560, Compound 345] | -0.38

Compound | Bmal1(PASB) dTmB [°C]
O=c1[nH]nc(Cc2ccccc2)c2ccccc12 [Prestw-Frag-1561, Compound 106] | -0.90
CC(C)CC(N)C1(c2ccc(Cl)cc2)CCC1 (stereo not shown) [Prestw-Frag-1566, Compound 459] | -2.54
Cc1cc(C(C)(C)C)cc(C)c1CC1=NCCN1 [Prestw-Frag-1575, Compound 425] | -1.26
O=c1[nH]c2ccccc2n1C1CCNCC1 [Prestw-Frag-1587, Compound 407] | -0.86
OCCOc1cccc2[nH]ccc12 [Prestw-Frag-1595, Compound 110] | -0.17
NCCc1c[nH]c2ccc(O)cc12 [Prestw-Frag-1643, Compound 78] | -0.60
Oc1ccc2[nH]ccc2c1 [Prestw-Frag-1645, Compound 308] | 0.24
Cc1cc(N)no1 [Prestw-Frag-1647, Compound 292] | -0.16
Nc1ccnn1-c1ccccc1 [Prestw-Frag-1648, Compound 208] | -0.34
OC(c1ccccc1)(c1ccccc1)C1CCNCC1 [Prestw-Frag-1654, Compound 403] | -1.27
NC(=O)CN1C(=O)c2ccccc2C1=O [Prestw-Frag-1661, Compound 297] | -0.12
Cc1ccc(S(=O)(=O)NC(N)=O)cc1 [Prestw-Frag-1667, Compound 248] | 0.07
O=c1[nH]nc2ccccn12 [Prestw-Frag-1673, Compound 287] | -1.05
O=C(O)C(CO)c1ccccc1 (stereo not shown) [Prestw-Frag-1686, Compound 284] | -1.23
CC(N)COc1ccccc1 (stereo not shown) [Prestw-Frag-1691, Compound 270] | 0.11
c1cc2c(s1)CCNC2 [Prestw-Frag-1694, Compound 112] | -0.53
Clc1cccc(CN2CCNCC2)c1 [Prestw-Frag-1700, Compound 62] | -0.92
Clc1ccc(-c2cncnc2)cc1 [Prestw-Frag-1704, Compound 385] | -1.51
CCCC(=O)Nc1ccc(O)c(C(C)=O)c1 [Prestw-Frag-1716, Compound 95] | -1.04
CCCC(=O)Nc1cccc(C(C)=O)c1 [Prestw-Frag-1717, Compound 428] | -0.30
c1ccc2c(c1)CNc1ccccc1C2 [Prestw-Frag-1722, Compound 6] | -1.75
COc1cc(C(N)=O)cc(OC)c1OC [Prestw-Frag-1731, Compound 341] | -0.33

Compound | Bmal1(PASB) dTmB [°C]
CCN(CC)CCOC(=O)c1ccccc1 [Prestw-Frag-1735, Compound 406] | -0.48
O=C1CCOc2ccccc21 [Prestw-Frag-1740, Compound 360] | -0.05
Clc1ccc(C(c2ccccc2)N2CCNCC2)cc1 (stereo not shown) [Prestw-Frag-1741, Compound 476] | -4.68
O=C(NCc1cccnc1)c1ccc(O)cc1 [Prestw-Frag-1747, Compound 457] | -0.46
CC(=O)Nc1ncc([N+](=O)[O-])s1 [Prestw-Frag-1750, Compound 291] | 0.07
O=C(O)CCCc1ccc(-c2ccccc2)cc1 [Prestw-Frag-1767, Compound 455] | -2.43
O=C(O)CCC(=O)c1ccccc1 [Prestw-Frag-1768, Compound 87] | -0.11
CNCCC(c1ccccc1)c1ccccc1 [Prestw-Frag-1772, Compound 410] | -1.48
COc1ccc(Cl)cc1C(N)=O [Prestw-Frag-1775, Compound 316] | -0.78
CC(=O)Nc1ccccn1 [Prestw-Frag-1782, Compound 170] | -0.28
Cc1cccc(O)c1 [Prestw-Frag-1791, Compound 216] | -0.80
Cc1c(N)c(=O)n(-c2ccccc2)n1C [Prestw-Frag-1807, Compound 18] | -0.46
COc1ccc(OCC(N)=O)cc1 [Prestw-Frag-1812, Compound 300] | 0.07
c1ccc(C(c2ccccc2)N2CCCNCC2)cc1 [Prestw-Frag-1817, Compound 445] | -1.89
NNCCc1ccccc1 [Prestw-Frag-1818, Compound 31] | -1.46
Cc1[nH]c2ccccc2c1CC(=O)O [Prestw-Frag-1824, Compound 477] | -6.48
O=C(COc1ccc(Cl)cc1)N1CCNCC1 [Prestw-Frag-1832, Compound 244] | -1.08
Cc1ccccc1NC(=O)C(C)N (stereo not shown) [Prestw-Frag-1856, Compound 389] | 0.12
CC(C(=O)O)c1ccccc1 (stereo not shown) [Prestw-Frag-1859, Compound 194] | -0.02
